This is an account of results in PMC5784158, “New 2-Aryl-9-methyl-β-carbolinium salts as Potential Acetylcholinesterase Inhibitor agents: Synthesis, Bioactivity and Structure–Activity Relationship” (Scientific Reports, 2018).

A word on the IC50: it is the concentration needed to halve the response being measured. The term inhibition denotes the change of the read-out against control, counted positive when it falls.

Like-named read-outs stand apart in the source and are kept apart here. A value given as a limit tells only on which side of the number the result lay.

The target in one test is AChE (Musca domestica, UniProt Q7YWJ9). The test can be described thus: biochemical. The format is biochemical, fly. As for the experimental part:
AChE (E.C. 3.1.1.7) (BR, 200 u/mg) from fly’s head and BuChE (E.C. 3.1.1.8) (BR, 20 u/mg) from horse serum were purchased from Shanghai Yuanye biological technology Co. Ltd (Shanghai, China).
(§1) The inhibitory activities of the compounds against AChE were evaluated according to Ellman’s coupled enzyme assay[47] with the following modifications. 90 μL potassium phosphate buffer (PBS, 0.1 M, pH 7.4), 10 μL the solution of 2 units/mL AChE in 0.1 M PBS (pH 7.4) and 10 μL the solution of 200 μM test compounds in the mixed solution of methanol-PBS (pH 7.4) (1:9, V/V) were added to each well of a 96-well plate. The methanol-PBS solution was used as a blank control. After incubation at room temperature for 10 min, 60 μL the solution of 10 mM DTNB in PBS was added into each the well. The plate was placed on crushed ices and cooled for 20 min. To each the well was added 30 μL the solution of 7.5 mM ATCh in PBS (pH 7.4). […] Each test was performed in triplicate. Inhibition rates of the enzyme were calculated relative to a control sample. The inhibitory activities against BuChE were measured as described above for AChE, using 0.7 unit/mL BuChE and 4 mM BuTCh instead of AChE and ATCh as the enzyme and substrate, respectively.
(§2) The probit value of the average inhibition rate for each test concentration and the corresponding lg[concentration] were used to establish enzyme inhibition regression equation by the linear least-square fitting method. IC50 values were calculated from the equations.

The target of another test is T1, BuChE (Equus caballus, UniProt P81908).
T1 construct: BuChE (E.C. 3.1.1.8) (BR, 20 u/mg) from horse serum; purchased Shanghai Yuanye biological technology Co. Ltd (Shanghai, China); host or cells: horse serum (tissue-derived)
T1 sequence (P81908 whole entry): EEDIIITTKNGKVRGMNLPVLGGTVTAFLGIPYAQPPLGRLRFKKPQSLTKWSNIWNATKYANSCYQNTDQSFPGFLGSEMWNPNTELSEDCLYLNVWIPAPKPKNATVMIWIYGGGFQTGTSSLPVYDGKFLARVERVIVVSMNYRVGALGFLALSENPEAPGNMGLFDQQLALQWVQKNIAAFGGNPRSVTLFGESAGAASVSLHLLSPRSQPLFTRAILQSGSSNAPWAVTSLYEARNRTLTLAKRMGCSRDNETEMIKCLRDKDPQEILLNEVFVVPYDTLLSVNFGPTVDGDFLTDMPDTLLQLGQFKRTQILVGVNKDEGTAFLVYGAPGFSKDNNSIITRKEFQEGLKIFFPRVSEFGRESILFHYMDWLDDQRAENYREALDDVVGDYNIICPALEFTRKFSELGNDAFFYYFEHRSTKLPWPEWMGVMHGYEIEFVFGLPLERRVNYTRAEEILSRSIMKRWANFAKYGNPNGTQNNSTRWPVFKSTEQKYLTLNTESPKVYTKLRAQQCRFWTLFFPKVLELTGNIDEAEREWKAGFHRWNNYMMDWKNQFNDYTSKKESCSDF
The test can be described thus: BuChE inhibition, Ellman's method. The class given is biochemical, horse. Conditions: read-out: IC50 ± S.D BuChE.
Source text: There is increasing recognition that BuChE may play an important role in cholinergic transmission[15],[16]. While the level of AChE decreases dramatically in the advanced stage of AD, BuChE increases in brain regions involved in cognitive functions[17],[18]. At this point, BuChE is able to compensate for AChE loss by hydrolyzing ACh. These observations lead one to believe that inhibition of both AChE and BuChE may contribute to improvement of current symptomatic treatments of AD. Therefore, the compounds in Table 2 were also evaluated for BuChE inhibition activity by means of Ellman’s method. […] AChE (E.C. 3.1.1.7) (BR, 200 u/mg) from fly’s head and BuChE (E.C. 3.1.1.8) (BR, 20 u/mg) from horse serum were purchased from Shanghai Yuanye biological technology Co. Ltd (Shanghai, China).
as §1, §2
On the technique in general: In Ellman's method for cholinesterases, released thiocholine reacts with DTNB.

Where [1] appears, read: test concentration of the compound 10 μM.

Chain of AChE (Q7YWJ9 81-659): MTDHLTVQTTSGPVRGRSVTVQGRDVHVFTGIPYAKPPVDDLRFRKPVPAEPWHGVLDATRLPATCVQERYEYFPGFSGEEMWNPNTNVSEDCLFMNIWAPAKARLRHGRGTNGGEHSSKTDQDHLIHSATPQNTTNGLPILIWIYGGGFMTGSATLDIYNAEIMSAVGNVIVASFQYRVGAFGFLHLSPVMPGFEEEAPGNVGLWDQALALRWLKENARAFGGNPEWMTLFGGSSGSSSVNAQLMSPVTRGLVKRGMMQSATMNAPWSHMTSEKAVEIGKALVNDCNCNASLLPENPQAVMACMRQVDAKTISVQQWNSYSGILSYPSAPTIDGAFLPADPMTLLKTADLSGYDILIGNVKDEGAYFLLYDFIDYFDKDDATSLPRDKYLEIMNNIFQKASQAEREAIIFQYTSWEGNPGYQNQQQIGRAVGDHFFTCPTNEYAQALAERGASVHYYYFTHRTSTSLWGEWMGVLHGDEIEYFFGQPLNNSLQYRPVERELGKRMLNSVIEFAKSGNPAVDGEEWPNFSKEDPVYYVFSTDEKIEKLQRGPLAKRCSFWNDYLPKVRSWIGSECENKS

On to `C=CCn1c2c(c3ccccc31)CC[N+](c1ccccc1)=C2.[Br-]` [Compound A41], for which the “SI: selectivity index, ratio IC50 (BuChE)/IC50 (AChE)” value on AChE was determined as 1.75. The results for the 50% inhibitory concentration (IC50) at AChE (read-out: IC50 ± S.D AChE) and on BuChE were 3.91 ± 0.36 µM and 6.83 ± 0.2 µM, respectively. Besides, the “Inhibition rate (%)” value on AChE (setting [1]) came to 74.4 ± 1.1 ab %.

As to `CCCCn1c2c(c3ccccc31)CC[N+](c1ccccc1)=C2.[Br-]` [Compound A42], on AChE, the “SI: selectivity index, ratio IC50 (BuChE)/IC50 (AChE)” value is given as 1.02. Also, the IC50 amounted to 9.79 ± 3.55 µM at AChE (read-out: IC50 ± S.D AChE) and 10 ± 0.68 µM on BuChE. The “Inhibition rate (%)” value at AChE (setting [1]) is given as 53.9 ± 1.5 ef %.

For `C1=[N+](c2ccccc2)CCc2c1[nH]c1ccccc21.[Br-]` [Compound A46], the 50% inhibitory concentration (IC50) on AChE (read-out: IC50 ± S.D AChE) was found to be 18.2 ± 1.97 µM; on BuChE, 3.9 ± 0.53 µM. The “Inhibition rate (%)” value at AChE (setting [1]) came out at 41.3 ± 1.4 ij %.

With `Cn1c2cc(F)ccc2c2cc[n+](-c3ccccc3)cc21.[Br-]` [Compound B36, 7-Fluoro-9-methyl-2-phenyl-β-carboline bromide], the IC50 on AChE (read-out: IC50 ± S.D AChE) worked out at 2.61 ± 0.51 µM. Further, the “Inhibition rate (%)” value at AChE (setting [1]) was 76.2 ± 1.1 k %.

Turning to `Cn1c2cc(Cl)ccc2c2cc[n+](-c3ccccc3)cc21.[Br-]` [Compound B37, 7-Chloro-9-methyl-2-phenyl-β-carboline bromide], the half-inhibitory concentration (IC50) at AChE (read-out: IC50 ± S.D AChE) is 0.57 ± 0.08 µM. For the same compound, on AChE (setting [1]), the “Inhibition rate (%)” value worked out at 89.9 ± 0.7 def %.

For the compound `CCn1c2ccccc2c2cc[n+](-c3ccccc3)cc21.[Br-]` [Compound B38, 9-Ethyl-2-phenyl-β-carboline bromide], the IC50 on AChE (read-out: IC50 ± S.D AChE) came out at 0.76 ± 0.21 µM. Moreover, the “Inhibition rate (%)” value on AChE (setting [1]) stood at 87.8 ± 1.1 efgh %.

As for `CCCn1c2ccccc2c2cc[n+](-c3ccccc3)cc21.[Br-]` [Compound B39, 9-Propyl-2-phenyl-β-carboline bromide], on AChE (read-out: IC50 ± S.D AChE), the IC50 was 3.08 ± 0.66 µM. Besides, on AChE (setting [1]), the “Inhibition rate (%)” value is 78.8 ± 0.9 jk %.

Turning to `CC(C)n1c2ccccc2c2cc[n+](-c3ccccc3)cc21.[Br-]` [Compound B40, 9-Iso-propyl-2-phenyl-β-carboline bromide], at AChE (read-out: IC50 ± S.D AChE), the IC50 amounted to 0.54 ± 0.16 µM. In addition, the “Inhibition rate (%)” value on AChE (setting [1]) was determined as 86.9 ± 0.8 fgh %.

With `C=CCn1c2ccccc2c2cc[n+](-c3ccccc3)cc21.[Br-]` [Compound B41, 9-Allyl-2-phenyl-β-carboline bromide], the concentration for half-maximal inhibition (IC50) at AChE (read-out: IC50 ± S.D AChE) was determined as 1.18 ± 0.3 µM. At AChE (setting [1]), the “Inhibition rate (%)” value is on record as 78.2 ± 1.6 k %.

On to `CCCCn1c2ccccc2c2cc[n+](-c3ccccc3)cc21.[Br-]` [Compound B42, 9-Butyl-2-phenyl-β-carboline bromide], for which, at AChE (read-out: IC50 ± S.D AChE), the IC50 stood at 2.91 ± 0.33 µM. Also, the “Inhibition rate (%)” value at AChE (setting [1]) worked out at 65.7 ± 0.6 m %.

Consider `CC(C)Cn1c2ccccc2c2cc[n+](-c3ccccc3)cc21.[Br-]` [Compound B43, 9-Iso-butyl-2-phenyl-β-carboline bromide], for which the 50% inhibitory concentration (IC50) at AChE (read-out: IC50 ± S.D AChE) was 0.98 ± 0.03 µM. On AChE (setting [1]), the “Inhibition rate (%)” value came to 84.1 ± 0.6 hi %.

For `[Br-].c1ccc(Cn2c3ccccc3c3cc[n+](-c4ccccc4)cc32)cc1` [Compound B44, 9-Benzyl-2-phenyl-β-carboline bromide], the half-inhibitory concentration (IC50) on AChE (read-out: IC50 ± S.D AChE) was 11.2 ± 2.54 µM. At AChE (setting [1]), the “Inhibition rate (%)” value was 47.8 ± 2.0 q %.

For `CCOC(=O)Cn1c2ccccc2c2cc[n+](-c3ccccc3)cc21.[Br-]` [Compound B45, 9-(Ethoxy-2-oxyethyl)-2-phenyl-β-carboline bromide], on AChE (Estimated values based on the results in Table 1 (inhibition rate at 10 μM), read-out: IC50 AChE, estimated values), the concentration for half-maximal inhibition (IC50) is more than 10 µM. The “Inhibition rate (%)” value at AChE (setting [1]) amounted to 42.0 ± 0.7 rs %.

Regarding `Br.c1ccc(-n2ccc3c4ccccc4nc-3c2)cc1` [Compound B46, 2-Phenyl-β-carboline bromide], the IC50 on AChE (read-out: IC50 ± S.D AChE) came out at 18 ± 2.42 µM. Besides, the “Inhibition rate (%)” value at AChE (setting [1]) amounted to 43.0 ± 1.8 r %.

On to `Cc1ccc(N2CCc3c(n(C)c4ccccc34)C2)cc1` [Compound C1, 9-methyl-2-p-toly-1,2,3,4-tetrahydro-β-carboline], for which, on AChE (10 μM, read-out: IC50 AChE, NA), the IC50 is more than 10 µM. Besides, on AChE (test concentration of the compound 10 μM, read-out: Inhibition rate (%)), the inhibition at 10 µM is -2.3 ± 3.2%.
